# Data taken from patent US7598245B2 (Vertex Pharmaceuticals Incorporated, priority 2003, dated 2009).
# Experiments:
# Format in all cases: biochemical
# GSK-3β (AA 1-420) = GSK-3β (AA 1-420) (Homo sapiens, UniProt P49841); assay: Inhibition of GSK-3, coupled enzyme system; details: 20 μM ATP, 30° C.
# Description: Compounds are screened for their ability to inhibit GSK-3β (AA 1-420) activity using a standard coupled enzyme system [Fox et al. Protein Sci. 1998, 7, 2249]. Reactions are carried out in a solution containing 100 mM HEPES (pH 7.5), 10 mM MgCl2, 25 mM NaCl, 300 μM NADH, 1 mM DTT and 1.5% DMSO. Final substrate concentrations in the assay are 20 μM ATP (Sigma Chemicals, St Louis, Mo.) and 300 μM peptide (American Peptide, Sunnyvale, Calif.). Reactions are carried out at 30° C. and 20 nM GSK-3β. Final concentrations of the components of the coupled enzyme system are 2.5 mM phosphoenolpyruvate, 300 μM NADH, 30 μg/ml pyruvate kinase and 10 μg/ml lactate dehydrogenase.
# An assay stock buffer solution is prepared containing all of the reagents listed above with the exception of ATP and the test compound of interest. The assay stock buffer solution (175 μl) is incubated in a 96 well plate with 5 μl of the test compound of interest at final concentrations spanning 0.002 μM to 30 μM at 30° C. for 10 min. Typically, a 12 point titration is conducted by preparing serial dilutions (from 10 mM compound stocks) with DMSO of the test compounds in daughter plates. The reaction is initiated by the addition of 20 μl of ATP (final concentration 20 μM). Rates of reaction are obtained using a Molecular Devices Spectramax plate reader (Sunnyvale, Calif.) over 10 min at 30° C. The Ki values are determined from the rate data as a function of inhibitor concentration.
# CDK-2/Cyclin A = molecular target: T1, CDK-2/Cyclin A (Homo sapiens, UniProt P24941); assay: Inhibition of CDK-2, coupled enzyme assay; details: 100 μM ATP, 30° C.
# T1 construct: 25 nM CDK-2/Cyclin A
# Description: Compounds are screened for their ability to inhibit CDK-2/Cyclin A using a standard coupled enzyme assay [Fox et al. Protein Sci. 1998, 7, 2249]. Reactions were carried out in 100 mM HEPES (pH 7.5), 10 mM MgCl2, 25 mM NaCl, 1 mM DTT and 1.5% DMSO. Final substrate concentrations in the assay are 100 μM ATP (Sigma chemicals) and 100 μM peptide (American Peptide, Sunnyvale, Calif.). Assays are carried out at 30° C. and 25 nM CDK-2/Cyclin A. Final concentrations of the components of the coupled enzyme system are 2.5 mM phosphoenolpyruvate, 350 μM NADH, 30 μg/ml pyruvate kinase and 10 μg/ml lactate dehydrogenase.
# An assay stock buffer solution is prepared containing all of the reagents listed above, with the exception of CDK-2/Cyclin A, DTT and the test compound of interest. 56 μl of the test reaction is placed in a 384 well plate followed by addition of 1 μl of 2 mM DMSO stock containing the test compound (final compound concentration 30 μM). The plate is preincubated for ˜10 minutes at 30° C. and the reaction initiated by addition of 10 μl of enzyme (final concentration 25 nM). Rates of reaction are obtained using a BioRad Ultramark plate reader (Hercules, Calif.) over a 5 minute read time at 30° C. Ki values are determined according to standard methods.
# JAK-3 = molecular target: T2, JAK-3 (Homo sapiens, UniProt P52333); assay: JAK3 inhibition assay (ELISA, Poly (Glu, Ala, Tyr) coated plates); details: 2 μM ATP
# T2 sequence (P52333 1-1124): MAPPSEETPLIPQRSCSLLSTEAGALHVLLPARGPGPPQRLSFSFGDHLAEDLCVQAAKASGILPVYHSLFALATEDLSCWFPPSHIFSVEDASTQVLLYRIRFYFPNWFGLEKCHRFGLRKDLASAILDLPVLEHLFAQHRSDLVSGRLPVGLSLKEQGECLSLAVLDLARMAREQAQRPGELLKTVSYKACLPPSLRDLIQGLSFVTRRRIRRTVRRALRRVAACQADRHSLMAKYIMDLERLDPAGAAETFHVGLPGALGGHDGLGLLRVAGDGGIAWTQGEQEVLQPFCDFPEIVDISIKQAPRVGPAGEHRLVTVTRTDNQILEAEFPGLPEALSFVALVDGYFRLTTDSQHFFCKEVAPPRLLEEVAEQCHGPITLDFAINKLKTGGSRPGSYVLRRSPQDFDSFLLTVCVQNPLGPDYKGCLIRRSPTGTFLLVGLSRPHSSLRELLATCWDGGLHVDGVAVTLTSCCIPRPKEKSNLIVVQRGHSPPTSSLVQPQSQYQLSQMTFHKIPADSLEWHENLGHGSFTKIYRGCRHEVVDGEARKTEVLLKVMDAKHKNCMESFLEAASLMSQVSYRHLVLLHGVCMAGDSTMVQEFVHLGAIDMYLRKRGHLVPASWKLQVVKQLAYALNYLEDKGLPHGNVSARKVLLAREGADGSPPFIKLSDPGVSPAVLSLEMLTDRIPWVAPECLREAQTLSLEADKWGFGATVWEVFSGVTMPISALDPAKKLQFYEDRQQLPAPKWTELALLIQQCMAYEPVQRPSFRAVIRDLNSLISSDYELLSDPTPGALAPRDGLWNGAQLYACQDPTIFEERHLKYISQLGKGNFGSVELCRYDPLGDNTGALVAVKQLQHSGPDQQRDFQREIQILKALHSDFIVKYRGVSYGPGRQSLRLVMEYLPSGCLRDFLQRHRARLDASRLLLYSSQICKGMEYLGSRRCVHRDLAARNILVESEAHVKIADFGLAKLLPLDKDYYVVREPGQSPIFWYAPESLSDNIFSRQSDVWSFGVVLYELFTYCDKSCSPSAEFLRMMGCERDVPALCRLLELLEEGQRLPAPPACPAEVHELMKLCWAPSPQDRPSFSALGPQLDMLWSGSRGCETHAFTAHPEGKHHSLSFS
# Outline: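 ELISA on plates coated with poly(Glu,Ala,Tyr) 6:3:1, with 2 μM ATP, 5 mM MgCl2 and compound. Enzyme-started reaction ran 60 min at 30 °C. Phosphotyrosine detected with HRP-4G10 and TMB at 450 nm; Ki values derived.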
# Chain of GSK-3β (AA 1-420) (P49841 whole entry, the tested form may be a part): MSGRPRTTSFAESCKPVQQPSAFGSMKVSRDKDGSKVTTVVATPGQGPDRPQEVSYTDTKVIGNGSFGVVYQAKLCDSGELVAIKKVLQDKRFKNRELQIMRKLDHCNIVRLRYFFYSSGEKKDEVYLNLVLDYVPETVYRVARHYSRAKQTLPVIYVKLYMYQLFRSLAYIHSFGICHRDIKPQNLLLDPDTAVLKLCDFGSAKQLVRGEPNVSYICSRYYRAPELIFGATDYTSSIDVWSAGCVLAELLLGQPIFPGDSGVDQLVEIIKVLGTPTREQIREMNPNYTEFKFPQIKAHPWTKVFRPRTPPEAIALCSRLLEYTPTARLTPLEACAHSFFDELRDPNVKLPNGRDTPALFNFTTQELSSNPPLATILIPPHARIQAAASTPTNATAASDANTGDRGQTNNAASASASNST
Ki (GSK-3β (AA 1-420)),Ki (CDK-2/Cyclin A),Ki (JAK-3),SMILES
> 1000 nM,> 1000 nM,> 1000 nM,CC(C)(C)CC(=O)Nc1cc(-n2cnc(Nc3ccccc3)n2)ccn1 [Compound I-102]
> 1000 nM,500 to 1000 nM,10 to 1000 nM,c1ccc(-n2cnc(Nc3ccnc(N4CCOCC4)c3)n2)cc1 [Compound I-105]
> 1000 nM,> 1000 nM,10 to 1000 nM,c1ccc(-n2cnc(Nc3ccc(N4CCOCC4)cc3)n2)cc1 [Compound I-106]
> 1000 nM,> 1000 nM,> 1000 nM,c1ccc(-n2cnc(Nc3ccnc(NCCN4CCOCC4)c3)n2)cc1 [Compound I-107]
> 1000 nM,> 1000 nM,> 1000 nM,c1ccc(-n2cnc(Nc3ccc(N4CCOCC4)nc3)n2)cc1 [Compound I-134]
> 1000 nM,> 1000 nM,> 1000 nM,CN1CCN(c2ccc(Nc3ncn(-c4ccccc4)n3)cn2)CC1 [Compound I-135]
